molecular target: recombinant CaMKIIδ (Homo sapiens (Human), UniProt Q13557); assay: CaMKIIδ biochemical assay (HTRF); settings: 10 pM CaMKIIδ, 110 nM calmodulin, 12 μM ATP, 1 hour; read-out: CAMKIID-HTRF-384V2 (IC50 - nM)
Experimental: CaMKIIδ Biochemical Assay
The biochemical activity of recombinant CaMKIIδ was measured by monitoring the phosphorylation of a target peptide using Homogenous Time Resolved Fluorescence (HTRF) technology from CisBio Bioassays.

Point of comparison: N[C@@H]1CC[C@H]2CCCN(C(=O)c3ccnc(-c4cnn5ccc(-c6ccccc6)nc45)c3)[C@H]21 [Example 96, ((4aR,7R,7aR)-7-aminooctahydro-1H-cyclopenta[b]pyridin-1-yl)(2-(5-phenylpyrazolo[1,5-a]pyrimidin-3-yl)pyridin-4-yl)methanone], IC50 12.7 nM. Against it:
- CCNC(C)(C)CNC(=O)c1ccnc(-c2cnn3ccc(-c4ccccc4)nc23)c1 [Example 67, N-(2-(ethylamino)-2-methylpropyl)-2-(5-phenylpyrazolo[1,5-a]pyrimidin-3-yl)isonicotinamide] — 8-fold higher, 102 nM
- CCN(CC)[C@@H](C)CNC(=O)c1cc(-c2cnn3ccc(-c4cccs4)nc23)nc(N2CC[C@H]2C(=O)NCC#N)c1 [Example 300, 2-((S)-2-((cyanomethyl)carbamoyl)azetidin-1-yl)-N—((S)-2-(diethylamino)propyl)-6-(5-(thiophen-2-yl)pyrazolo[1,5-a]pyrimidin-3-yl)isonicotinamide] — 22-fold lower, 0.58 nM
- CCN(CC)[C@@H](C)CNC(=O)c1cc(-c2cnn3ccc(-c4cccs4)nc23)nc(N2CC(C)(O)C2)c1 [Example 226, (S)—N-(2-(diethylamino)propyl)-2-(3-hydroxy-3-methylazetidin-1-yl)-6-(5-(thiophen-2-yl)pyrazolo[1,5-a]pyrimidin-3-yl)isonicotinamide] — 130-fold lower, 0.1 nM
- CCN(CC)[C@@H](C)CNC(=O)c1cc(-c2cnn3ccc(-c4cccs4)nc23)nc(N2CC[C@H]2C(=O)N(C)OC)c1 [Example 287, N—((S)-2-(diethylamino)propyl)-2-((S)-2-(methoxy(methyl)carbamoyl)azetidin-1-yl)-6-(5-(thiophen-2-yl)pyrazolo[1,5-a]pyrimidin-3-yl)isonicotinamide] — 38-fold lower, 0.33 nM
- NC[C@@H]1CCCCN1C(=O)c1cc(Cl)nc(-c2cnn3ccc(-c4cccs4)nc23)c1 [Example 113, (S)-(2-(aminomethyl)piperidin-1-yl)(2-chloro-6-(5-(thiophen-2-yl)pyrazolo[1,5-a]pyrimidin-3-yl)pyridin-4-yl)methanone] — 3.3-fold higher, 41.9 nM
- CCN(CC)[C@@H](C)CNC(=O)c1cc(N[C@@H](C)C(=O)NC)nc(-c2cnn3ccc(-c4cccs4)nc23)c1 [Example 240, N—((S)-2-(diethylamino)propyl)-2-(((S)-1-(methylamino)-1-oxopropan-2-yl)amino)-6-(5-(thiophen-2-yl)pyrazolo[1,5-a]pyrimidin-3-yl)isonicotinamide] — 12-fold lower, 1.07 nM
- CCN(CC)[C@@H](C)CNC(=O)c1cc(-c2cnn3ccc(-c4cccs4)nc23)nc(N2CC(NC(=O)c3ncco3)C2)c1 [Example 194, (S)—N-(1-(4-((2-(diethylamino)propyl)carbamoyl)-6-(5-(thiophen-2-yl)pyrazolo[1,5-a]pyrimidin-3-yl)pyridin-2-yl)azetidin-3-yl)oxazole-2-carboxamide] — 67-fold lower, 0.19 nM
- CCN(CC)[C@@H](C)CNC(=O)c1cc(-c2cnn3ccc(-c4cccs4)nc23)nc(N2CC(F)(F)C(F)(F)C2)c1 [Example 230, (S)—N-(2-(diethylamino)propyl)-2-(3,3,4,4-tetrafluoropyrrolidin-1-yl)-6-(5-(thiophen-2-yl)pyrazolo[1,5-a]pyrimidin-3-yl)isonicotinamide] — 7.1-fold lower, 1.8 nM
- CCN(CC)[C@@H](C)CNC(=O)c1cc(-c2cnn(C3COC3)c2)nc(-c2cnn3ccc(-c4cccs4)nc23)c1 [Example 342, (S)—N-(2-(diethylamino)propyl)-2-(1-(oxetan-3-yl)-1H-pyrazol-4-yl)-6-(5-(thiophen-2-yl)pyrazolo[1,5-a]pyrimidin-3-yl)isonicotinamide] — 98-fold lower, 0.13 nM
- CCNC(CNC(=O)c1ccnc(-c2cnn3ccc(-c4ccccc4)nc23)c1)C(C)C (centres unmarked) [Example 55, N-(2-(ethylamino)-3-methylbutyl)-2-(5-phenylpyrazolo[1,5-a]pyrimidin-3-yl)isonicotinamide] — within 1.5-fold, 12 nM
